The source of these data is ChEMBL document CHEMBL3045199, “Synthesis of some (E)-6-[2-(furan-2-yl)ethenyl]-1,2,4-triazin-5-ones and their biological evaluation as antitumor agents” (2013).

Structures are written as SMILES.

What all share (format): functional
The subject of one assay is OVCAR-8. The assay can be described thus: Cytotoxicity against Homo sapiens (human) OVCAR8 cells assessed as growth inhibition at 10 uM after 24 hr. As to conditions: OVCAR-8, 24 h, read-out: GI.
The next assay deals with IGROV-1. Briefly: Cytotoxicity against Homo sapiens (human) IGROV1 cells assessed as growth inhibition at 10 uM after 24 hr. As to conditions: IGROV-1, 24 h, read-out: GI.
For the next assay, the system named is SK-MEL-2. The assay can be described thus: Cytotoxicity against Homo sapiens (human) SK-MEL-2 cells assessed as growth inhibition at 10 uM after 24 hr. As to conditions: SK-MEL-2, 24 h, read-out: GI.
A further assay deals with MCF7. Briefly: Cytotoxicity against Homo sapiens (human) MCF7 cells assessed as growth inhibition at 10 uM after 24 hr. As to conditions: MCF7, 24 h, read-out: GI.
The subject of the next assay is HL-60(TB). The assay can be described thus: Cytotoxicity against Homo sapiens (human) HL-60(TB) cells assessed as growth inhibition at 10 uM after 24 hr. The following applies: HL-60, 24 h, read-out: GI.
The test system of the next assay is RXF 393. Briefly: Cytotoxicity against Homo sapiens (human) RXF393 cells assessed as growth inhibition at 10 uM after 24 hr. As to conditions: RXF 393, 24 h, read-out: GI.
The next assay relates to T47D. Briefly: Cytotoxicity against Homo sapiens (human) T47D cells assessed as growth inhibition at 10 uM after 24 hr. As to conditions: read-out: GI.
For a further assay, the system named is MDA-MB-468. The assay can be described thus: Cytotoxicity against Homo sapiens (human) MDA-MB-468 cells assessed as growth inhibition at 10 uM after 24 hr. The following applies: MDA-MB-468, 24 h, read-out: GI.
The test system of another assay is UO-31. The assay can be described thus: Cytotoxicity against Homo sapiens (human) UO31 cells assessed as growth inhibition at 10 uM after 24 hr. The following applies: UO-31, 24 h, read-out: GI.

`O=c1c(/C=C/c2ccco2)n[nH]c(=S)n1/N=C/c1ccc([N+](=O)[O-])cc1`: the inhibition of growth at 10 µM came to 47.8% in the assay on OVCAR-8, 75.6% in the assay on IGROV-1, 70.3% in the assay on SK-MEL-2 and 73.1% in the assay with MCF7.
The matching figures for `Nn1c(=S)[nH]nc(/C=C/c2ccco2)c1=O`: 59.1%, 77%, 70.7% and 72.7%.
With `O=C1CC(=O)N(c2nc(=O)c(/C=C/c3ccco3)n[nH]2)N1`, in the assay on HL-60(TB), the inhibition of growth at 10 µM worked out at 54.3%.
In the case of `O=C(CSc1nc(=O)c(/C=C/c2ccco2)n[nH]1)c1ccc(Cl)cc1`, the inhibition of growth at 10 µM in the assay on RXF 393 was 62.5%; in the assay with IGROV-1, 80.4%; in the assay with SK-MEL-2, 42.3%; in the assay on T47D, 38.3%; in the assay on MDA-MB-468, 57.3%; with MCF7 it was 80.8%. Also, the inhibition of growth at 10 µM in the assay with UO-31 worked out at 33.3%.
